According to US11685762B2, “Aqueous suspension compositions, formulations, and water dispersible dry compositions comprising 16alpha-bromo-3beta-hydroxy-5alpha-androstan-17-ketone and hydrates, derivatives, and analogs thereof” (SD Chem, Inc., priority 2019, dated 2023):
Marks after values point to notes of the source that are not given here.

Assays:
[1] = test system: BALB/c male mice sensitized and challenged with OVA; test: Mouse asthma model (OVA challenge, bronchioalveolar lavage cell count); type: in vivo; settings: 0.2 mg/kg per day
Method: In this experiment, the BEA formulation is prepared based present invention formulation (Formulation of Composition 1 in Example 1).
18 BALB/c male mice, 8 weeks old are sensitized with two intraperitoneal (IP) administrations, 5 days apart, of 10 μg chicken egg ovalbumin (OVA, grade V; Sigma) emulsified in 1 mg of aluminum hydroxide (Thermo Scientific, Rockford, Ill., USA) in a total volume of 100 μl. Then, after one month mice are challenged via intratracheal (IT) administration of 0.75% OVA. BEA formulation is administered at 0.2 mg/kg dose in an injection volume of 0.1 mL in two different routes of administration (intratracheal and subcutaneous (SC)), one hour after the OVA challenge and one dose per day for up to 7 days. Then, animals are euthanized by exsanguination under pentobarbital anesthesia. The bronchioalveolar lavage (BAL) of the mice are used to determine the total counts of inflammatory cells. Control mice receive saline solution intraperitoneally (IP). All experiments are performed in accordance with INCMN Mexico City regulations. Two independent experiments are performed.

Taenia crassiceps = settings: mice, administration prior to infection with cysticerci; cited from earlier work
[2] = test system: ICR mice with colitis induced by DSS; test: DSS induced mouse colitis model; type: in vivo; settings: for White blood cell count: Mean ± SD, n = 12; for Macrohage cell count: abdominal macrophages
Method: Experimental animals: 72 ICR mice, male and female, 25-29 g body weight before starting the experiment.
Subgrouping: The experimental animals are divided into 6 groups at random, 12 mice in each group: physiological saline group, high dose group (40 mg/kg), moderate dose group (20 mg/kg), low dose group (10 mg/kg) of BEA obtained in Formulation/Composition 1 of the present invention, Dexamethasone (0.1 mg/kg), DSS model group.
Model replication: The experimental mice are […] 3% DSS and fed with water routinely for 7 days, the colitis model is duplicated.
Administration of drug: the mice are injected with the test drug on the same day when DSS are injected.
Experimental animal management: the general physical condition, loose stools, and bloody stools are observed every day.
The fecal occult blood is tested 3 days after injected with drug. The blood tests are done on day 7. The macrophages are counted and their IL-6 and TNF-alpha are determined. Their inflammation and ulcer level are observed. The colon content is taken to smear, stain and then determined the G+/G−. The thymus, spleen, liver are taken to weight and calculate the organ index. Sections of colon are sent for pathological examination.

Vk*MYC Mice = test: Anti-myeloma activity in Vk*MYC mice (M-Spike); settings: 15 mg/kg/day
Method: 3 Vk*MYC Mice are evaluated. […] The M-Spike value are assessed at day 7 and 14 respectively. […] The M-Spike value are assessed at day 7, 14 and 21 respectively.

Entamoeba histolytica = settings: hamsters; cited from earlier work

C[C@]12CC[C@H](O)C[C@@H]1CC[C@@H]1[C@@H]2CC[C@]2(C)C(=O)[C@H](Br)C[C@@H]12 [BEA, 16alpha-bromo-3beta-hydroxy-5alpha-androstan-17-ketone]
Inflammatory Cell Number in bronchioalveolar lavage ([1]; IT, Day 3): 4.61 × 10^4 | Inflammatory Cell Number in bronchioalveolar lavage ([1]; IT, Day 7): 5.99 × 10^4 | Inflammatory Cell Number in bronchioalveolar lavage ([1]; SC, Day 3): 4.07 × 10^4 | Inflammatory Cell Number in bronchioalveolar lavage ([1]; SC, Day 7): 1.06 × 10^5 | reduction of parasite load compared with controls (Taenia crassiceps): 50% | Final weight ([2]; BEA 10 mg/kg): 26.5 ± 2.6 g | IL-6/TNF-alpha ([2]; BEA 10 mg/kg): 9.5 ± 7.9 | IL-6 level ([2]; BEA 10 mg/kg): 551.7 ± 391.4 pg/mL | Spleen index ([2]; BEA 10 mg/kg): 5.7 ± 2.0 mg/g | TNFa level ([2]; BEA 10 mg/kg): 49.5 ± 23.2 pg/mL | The length of colon ([2]; BEA 10 mg/kg): 10.4 ± 1.0 cm | Thymus index ([2]; BEA 10 mg/kg): 2.7 ± 1.0 mg/g | Weight before fasting ([2]; BEA 10 mg/kg): 28.2 ± 2.8 g | number of animals with bloody stools ([2]; BEA 10 mg/kg): 5/12 | number of animals with fecal occult blood (3rd day) ([2]; BEA 10 mg/kg): 7/12 | White blood cell count ([2]; BEA 10 mg/kg): 5.9 ± 1.4 X10^9 | Macrohage cell count ([2]; BEA 10 mg/kg): 28.3 ± 8.9 X10^5 | Final weight ([2]; BEA 20 mg/kg): 25.7 ± 1.8 g | IL-6/TNF-alpha ([2]; BEA 20 mg/kg): 16.8 ± 8.0 | IL-6 level ([2]; BEA 20 mg/kg): 589.1 ± 227.1 pg/mL | Spleen index ([2]; BEA 20 mg/kg): 5.9 ± 1.0 mg/g | TNFa level ([2]; BEA 20 mg/kg): 49.1 ± 37.0 pg/mL | The length of colon ([2]; BEA 20 mg/kg): 10.5 ± 0.9 cm | Thymus index ([2]; BEA 20 mg/kg): 2.9 ± 0.7 mg/g | Weight before fasting ([2]; BEA 20 mg/kg): 27.7 ± 2.5 g | number of animals with bloody stools ([2]; BEA 20 mg/kg): 5/12 | number of animals with fecal occult blood (3rd day) ([2]; BEA 20 mg/kg): 7/12 | White blood cell count ([2]; BEA 20 mg/kg): 5.2 ± 1.5# X10^9 | Macrohage cell count ([2]; BEA 20 mg/kg): 32.3 ± 1.3# X10^5 | Final weight ([2]; BEA 40 mg/kg): 25.6 ± 1.7 g | IL-6/TNF-alpha ([2]; BEA 40 mg/kg): 12.7 ± 8.6 | IL-6 level ([2]; BEA 40 mg/kg): 370.8 ± 219.1 pg/mL | Spleen index ([2]; BEA 40 mg/kg): 6.4 ± 1.2 mg/g | TNFa level ([2]; BEA 40 mg/kg): 31.4 ± 15.1 pg/mL | The length of colon ([2]; BEA 40 mg/kg): 9.2 ± 0.8 cm | Thymus index ([2]; BEA 40 mg/kg): 3.1 ± 0.7 mg/g | Weight before fasting ([2]; BEA 40 mg/kg): 27.6 ± 1.7 g | number of animals with bloody stools ([2]; BEA 40 mg/kg): 6/12 | number of animals with fecal occult blood (3rd day) ([2]; BEA 40 mg/kg): 6/12 | White blood cell count ([2]; BEA 40 mg/kg): 5.9 ± 2.9 X10^9 | Macrohage cell count ([2]; BEA 40 mg/kg): 24.6 ± 3.4 X10^5 | reduction of M-Spike (Vk*MYC Mice): 40% | reduction on the development of amoebic liver abscesses (Entamoeba histolytica): 20%

C[C@@H]1C[C@H]2[C@@H]3CCC4=CC(=O)C=C[C@]4(C)[C@@]3(F)[C@@H](O)C[C@]2(C)[C@@]1(O)C(=O)CO [Dex, Dexamethasone, reference compound]
IL-6/TNF-alpha ([2]; Dexamethasone 0.1 mg/kg): 15.8 ± 8.7 | IL-6 level ([2]; Dexamethasone 0.1 mg/kg): 791.7 ± 234.3 pg/mL | Spleen index ([2]; Dexamethasone 0.1 mg/kg): 7.9 ± 1.7 mg/g | TNFa level ([2]; Dexamethasone 0.1 mg/kg): 92.4 ± 42.1 pg/mL | The length of colon ([2]; Dexamethasone 0.1 mg/kg): 9.9 ± 1.2 cm | Thymus index ([2]; Dexamethasone 0.1 mg/kg): 0.9 ± 0.4 mg/g | number of animals with bloody stools ([2]; Dexamethasone 0.1 mg/kg): 8/12 | number of animals with fecal occult blood (3rd day) ([2]; Dexamethasone 0.1 mg/kg): 9/12 | White blood cell count ([2]; Dexamethasone 0.1 mg/kg): 5.0 ± 2.6# X10^9 | Macrohage cell count ([2]; Dexamethasone 0.1 mg/kg): 24.4 ± 5.7 X10^5
